In patent US20230081426A1, “COMPOUNDS AND METHODS FOR KRAS MODULATION AND INDICATIONS THEREFOR” (Plexxikon Inc., priority 2020, published 2023):

Columns and labels:
[1] = target: T1, G12V-mutant human KRAS (amino acid residues 1-188) (Homo sapiens, UniProt P01116, G12V); test: KRAS Binding Competition Assay (AlphaScreen; biotinylated KRpep-2d analogue), G12V; conditions: geometric mean, read-out: KRAS GMean IC50 (uM) MUTATION: G12V
T1 construct: G12V-mutant human KRAS (amino acid residues 1-188) with FLAG tag was purified from E. coli; made in house; host or cells: E. coli

[2] = target: T2, G12D-mutant human KRAS (amino acid residues 1-188) (Homo sapiens, UniProt P01116, G12D); test: KRAS Binding Disruption Assay (AlphaScreen; biotinylated KRpep-2d analogue or RAF1-RBD), G12D; conditions: KRAS G12D; geometric mean; read-out: KRAS GMean IC50 (uM) MUTATION: G12D
T2 construct: G12D or G12C-mutant human KRAS (amino acid residues 1-188) with FLAG tag; made in house; host or cells: E. coli
In short: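 Displacement format with mutant KRAS, biotinylated KRpep-2d analogue or RAF1-RBD (5-20 nM each) at pH 7.5 with 5 mM MgCl2.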

IC50 [1] [µM] | IC50 [2] [µM] | Structure (SMILES)
0.0001 to 10 | 10 to 100 | CN1CCC[C@H]1COc1nc(N2[C@@H]3CC[C@H]2CN(C(=N)NC#N)C3)c2ccc(-c3cc(O)cc4ccccc34)cc2n1 [P-0349, (1R,5S)-N-cyano-8-(7-(3-hydroxynaphthalen-1-yl)-2-(((S)-1-methylpyrrolidin-2-yl)methoxy)quinazolin-4-yl)-3,8-diazabicyclo[3.2.1]octane-3-carboximidamide]
10 to 100 | 100 to 1000 | Cc1cc2cn[nH]c2cc1-c1ccc2c(N3C[C@H]4CC[C@@H](C3)N4)nc(OCC3CCCN3C)nc2c1 (stereo partly drawn) [P-0155, 4-((1R,5S)-3,8-diazabicyclo[3.2.1]octan-3-yl)-7-(5-methyl-1H-indazol-6-yl)-2-((1-methylpyrrolidin-2-yl)methoxy)quinazoline]
0.0001 to 10 | 0.0001 to 10 | CN(C)c1cccc(Oc2nc(N3C[C@H]4CC[C@@H](C3)N4)c3cc(Cl)c(-c4c(O)cccc4F)c(F)c3n2)c1 [P-0390, 2-(4-((1R,5S)-3,8-diazabicyclo[3.2.1]octan-3-yl)-6-chloro-2-(3-(dimethylamino)phenoxy)-8-fluoroquinazolin-7-yl)-3-fluorophenol]
10 to 100 | 0.0001 to 10 | Oc1cc(-c2ccc3c(N4[C@@H]5CC[C@H]4CNC5)nc(CC4CCNCC4)nc3c2)c2ccccc2c1 [P-0200, 4-(4-((1R,5S)-3,8-diazabicyclo[3.2.1]octan-8-yl)-2-(piperidin-4-ylmethyl)quinazolin-7-yl)naphthalen-2-ol]
0.0001 to 10 | 0.0001 to 10 | CN1CCC[C@H]1COc1nc(N2C[C@H]3CC[C@@H](C2)N3C(=O)Cc2cnn(C)c2)c2ccc(-c3cc(O)cc4ccccc34)c(F)c2n1 [P-0402, 1-((1R,5S)-3-(8-fluoro-7-(3-hydroxynaphthalen-1-yl)-2-(((S)-1-methylpyrrolidin-2-yl)methoxy)quinazolin-4-yl)-3,8-diazabicyclo[3.2.1]octan-8-yl)-2-(1-methyl-1H-pyrazol-4-yl)ethan-1-one]
100 to 1000 | 0.0001 to 10 | Cc1ccc2[nH]ncc2c1-c1c(Cl)cc2c(N3C[C@H]4CC[C@@H](C3)N4)nc(OC[C@@H]3CCCN3C)nc2c1F [P-0028, 4-((1R,5S)-3,8-diazabicyclo[3.2.1]octan-3-yl)-6-chloro-8-fluoro-7-(5-methyl-1H-indazol-4-yl)-2-(((S)-1-methylpyrrolidin-2-yl)methoxy)quinazoline]
100 to 1000 | 0.0001 to 10 | CN1CCC[C@H]1COc1nc(N2[C@@H]3CC[C@H]2CN(CC(=O)N2CCC(N)CC2)C3)c2ccc(-c3cc(O)cc4ccccc34)cc2n1 [P-0274, 1-(4-aminopiperidin-1-yl)-2-((1R,5S)-8-(7-(3-hydroxynaphthalen-1-yl)-2-(((S)-1-methylpyrrolidin-2-yl)methoxy)quinazolin-4-yl)-3,8-diazabicyclo[3.2.1]octan-3-yl)ethan-1-one]
10 to 100 | 0.0001 to 10 | CN1CCC[C@H]1COc1nc(N2[C@@H]3CC[C@H]2CN(CC(=O)C2CCNCC2)C3)c2ccc(-c3cc(O)cc4ccccc34)cc2n1 [P-0345, 2-((1R,5S)-8-(7-(3-hydroxynaphthalen-1-yl)-2-(((S)-1-methylpyrrolidin-2-yl)methoxy)quinazolin-4-yl)-3,8-diazabicyclo[3.2.1]octan-3-yl)-1-(piperidin-4-yl)ethan-1-one]
100 to 1000 | 0.0001 to 10 | Fc1c(-c2c[nH]c3ccc(C(F)(F)F)cc23)ccc2c(N3C[C@H]4CC[C@@H](C3)N4)nc(OCC34CCCN3CCC4)nc12 [P-0610, 4-((1R,5S)-3,8-diazabicyclo[3.2.1]octan-3-yl)-8-fluoro-2-((tetrahydro-1H-pyrrolizin-7a(5H)-yl)methoxy)-7-(5-(trifluoromethyl)-1H-indol-3-yl)quinazoline]
0.0001 to 10 | 0.0001 to 10 | CN1CCC[C@H]1COc1nc(N2C[C@H]3CC[C@@H](C2)N3C(=O)CCn2ccnc2)c2ccc(-c3cc(O)cc4ccccc34)cc2n1 [P-0382, 1-((1R,5S)-3-(7-(3-hydroxynaphthalen-1-yl)-2-(((S)-1-methylpyrrolidin-2-yl)methoxy)quinazolin-4-yl)-3,8-diazabicyclo[3.2.1]octan-8-yl)-3-(1H-imidazol-1-yl)propan-1-one]
10 to 100 | 0.0001 to 10 | CN1CCC[C@H]1COc1nc(N2CC3CCC2CN3)c2ccc(-c3cc(O)cc4ccccc34)c(F)c2n1 (stereo partly drawn) [P-0327, 4-(4-(2,5-diazabicyclo[2.2.2]octan-2-yl)-8-fluoro-2-(((S)-1-methylpyrrolidin-2-yl)methoxy)quinazolin-7-yl)naphthalen-2-ol]
10 to 100 | 0.0001 to 10 | CN1CCC[C@H]1COc1nc(N2C[C@H]3CC[C@@H](C2)N3C(=O)CC(N)=O)c2cc(Cl)c(-c3cc(O)cc4ccccc34)c(F)c2n1 [P-0451, 3-((1R,5S)-3-(6-chloro-8-fluoro-7-(3-hydroxynaphthalen-1-yl)-2-(((S)-1-methylpyrrolidin-2-yl)methoxy)quinazolin-4-yl)-3,8-diazabicyclo[3.2.1]octan-8-yl)-3-oxopropanamide]
100 to 1000 | 100 to 1000 | COc1ccc2c(-c3c(F)cc4c(N5C[C@H]6CC[C@@H](C5)N6)nc(OC[C@@H]5CCCN5C)nc4c3F)c[nH]c2c1 [P-0473, 4-((1R,5S)-3,8-diazabicyclo[3.2.1]octan-3-yl)-6,8-difluoro-7-(6-methoxy-1H-indol-3-yl)-2-(((S)-1-methylpyrrolidin-2-yl)methoxy)quinazoline]
10 to 100 | 10 to 100 | CN1CCC[C@H]1COc1nc(N2[C@@H]3CC[C@H]2CN(CCO)C3)c2ccc(-c3cc(O)cc4ccccc34)cc2n1 [P-0145, 4-(4-((1R,5S)-3-(2-hydroxyethyl)-3,8-diazabicyclo[3.2.1]octan-8-yl)-2-(((S)-1-methylpyrrolidin-2-yl)methoxy)quinazolin-7-yl)naphthalen-2-ol]
10 to 100 | 0.0001 to 10 | CN1CCC[C@H]1COc1nc(N2[C@@H]3CC[C@H]2CNC3)c2ccc(-c3cc(O)cc4ccccc34)cc2n1 [P-0336, 4-(4-((1R,5S)-3,8-diazabicyclo[3.2.1]octan-8-yl)-2-(((S)-1-methylpyrrolidin-2-yl)methoxy)quinazolin-7-yl)naphthalen-2-ol]
0.0001 to 10 | 0.0001 to 10 | CC(=O)NCC(=O)N1[C@@H]2CC[C@H]1CN(c1nc(OCC34CCCN3CCC4)nc3cc(-c4cc(O)cc5ccccc45)ccc13)C2 [P-0091, N-(2-((1R,5S)-3-(7-(3-hydroxynaphthalen-1-yl)-2-((tetrahydro-1H-pyrrolizin-7a(5H)-yl)methoxy)quinazolin-4-yl)-3,8-diazabicyclo[3.2.1]octan-8-yl)-2-oxoethyl)acetamide]
10 to 100 | 0.0001 to 10 | CN1CCC[C@H]1COc1nc(N2[C@@H]3CC[C@H]2CN(CC(O)CO)C3)c2ccc(-c3cc(O)cc4ccccc34)cc2n1 (stereo partly drawn) [P-0272, 3-((1R,5S)-8-(7-(3-hydroxynaphthalen-1-yl)-2-(((S)-1-methylpyrrolidin-2-yl)methoxy)quinazolin-4-yl)-3,8-diazabicyclo[3.2.1]octan-3-yl)propane-1,2-diol]
0.0001 to 10 | 0.0001 to 10 | CN(C)c1cccc(CCc2nc(N3C[C@H]4CC[C@@H](C3)N4)c3cc(Cl)c(-c4c(O)cccc4F)c(F)c3n2)c1 [P-0363, 2-(4-((1R,5S)-3,8-diazabicyclo[3.2.1]octan-3-yl)-6-chloro-2-(3-(dimethylamino)phenethyl)-8-fluoroquinazolin-7-yl)-3-fluorophenol]
